Measurements from ChEMBL document CHEMBL5154637, “Peptidomimetic α-Acyloxymethylketone Warheads with Six-Membered Lactam P1 Glutamine Mimic: SARS-CoV-2 3CL Protease Inhibition, Coronavirus Antiviral Activity, and in Vitro Biological Stability” (J Med Chem, 2022).

Columns and labels:
[1] = Selectivity index, ratio of CC50 for cytotoxicity against African green monkey VeroE6 cells assessed as reduction in cell viability to EC50 for antiviral activity against SARS-CoV-2 3CL protease; assay type: toxicity, cell-based; settings: read-out: Ratio CC50/EC50
Cathepsin S [2] = target: T1, Cathepsin S (Homo sapiens, UniProt P25774); experiment: Inhibition of human cathepsin S incubated for 30 mins by fluorometric analysis
Target sequence in this assay (P25774 whole entry): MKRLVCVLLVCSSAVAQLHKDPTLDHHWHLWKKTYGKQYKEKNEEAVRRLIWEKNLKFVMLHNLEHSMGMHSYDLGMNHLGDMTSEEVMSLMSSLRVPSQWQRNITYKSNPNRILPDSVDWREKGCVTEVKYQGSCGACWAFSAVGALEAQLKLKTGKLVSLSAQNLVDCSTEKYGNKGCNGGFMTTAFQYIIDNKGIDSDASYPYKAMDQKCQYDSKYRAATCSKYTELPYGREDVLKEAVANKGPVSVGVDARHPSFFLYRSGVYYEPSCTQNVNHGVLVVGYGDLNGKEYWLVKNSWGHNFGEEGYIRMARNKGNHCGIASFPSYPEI

[3] = Antiviral activity against Human coronavirus OC43 infected in human Huh-7 cells assessed as reduction in virus-induced cytopathic effect incubated for 7 days by Celltiter-Glo assay; assay type: functional, cell-based; settings: Betacoronavirus 1, OC43, Huh-7, 168 h
[4] = Selectivity index, ratio of CC50 for cytotoxicity against human A549 cells assessed as reduction in cell viability to EC50 for antiviral activity against SARS-CoV-2 3CL protease; assay type: toxicity, cell-based; settings: read-out: Ratio CC50/EC50
[5] = Cytotoxicity against human MRC5 cells assessed as reduction in cell viability incubated for 24 hrs by Celltiter-glo luminescent cell viability assay; assay type: toxicity, cell-based
[6] = Cytotoxicity against human Huh-7 cells assessed as reduction in cell viability incubated for 24 hrs by Celltiter-glo luminescent cell viability assay; assay type: toxicity, cell-based
Human coronavirus 229E = experiment: Antiviral activity against Human coronavirus 229E infected in human MRC5 cells assessed as reduction in virus-induced cytopathic effect incubated for 3 days by Celltiter-Glo assay; assay type: functional, organism-based; settings: MRC5, 72 h
[7] = Metabolic stability in human plasma measured at 2 hrs by LC-MS analysis; assay type: ADME, cell-free; settings: read-out: Stability
Cathepsin B [8] = target: T2, Cathepsin B (Homo sapiens, UniProt P07858); experiment: Inhibition of human cathepsin B at 1 uM incubated for 30 mins by fluorometric analysis
Cathepsin S [9] = target: T1, Cathepsin S; experiment: Inhibition of human cathepsin S at 1 uM incubated for 30 mins by fluorometric analysis
Target sequence in this assay (P25774 115-331 limits assumed): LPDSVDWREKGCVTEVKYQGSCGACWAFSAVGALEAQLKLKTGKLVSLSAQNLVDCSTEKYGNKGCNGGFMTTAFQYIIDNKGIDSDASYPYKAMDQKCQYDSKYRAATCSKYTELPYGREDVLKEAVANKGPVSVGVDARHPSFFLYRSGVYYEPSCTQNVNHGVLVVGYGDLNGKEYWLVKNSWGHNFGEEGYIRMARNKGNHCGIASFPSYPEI

Cathepsin B [10] = target: T2, Cathepsin B; experiment: Inhibition of human cathepsin B incubated for 30 mins by fluorometric analysis
[11] = Dissociation constant, pKa of the compound; assay type: physicochemical
in vitro [12] = settings: chlorocebus sabaeus, Vero E6 cells
in vitro [13] = settings: human, A549 cells
SARS-CoV-2 = experiment: microbe, parasite or virus in culture; settings: Severe acute respiratory syndrome coronavirus 2, Vero C1008, 48 h
[14] = Stability in CD-1 mouse plasma assessed as half life at 2 uM measured upto 120 mins by LC-MS/MS analysis; assay type: ADME, cell-free
[15] = Microsomal stability in CD-1 mouse liver microsomes assessed as half life at 1 uM measured upto 60 mins in presence of NADPH by LC-MS/MS analysis; assay type: ADME, Microsome; settings: for Stability: mouse, microsomes, 1 h, 1 µM
[16] = Metabolic stability in CD-1 mouse Hepatocytes assessed as half life at 3 uM measured upto 90 mins by LC-MS/MS analysis; assay type: ADME, cell-based, Hepatocyte; settings: for half-life at 3 µM: CD-1, mouse
[17] = Lipophilicity, log D of the compound at phosphate buffer pH 7.4 by shake flask method based LC-MS/MS analysis; assay type: physicochemical
[18] = Metabolic stability in human plasma assessed as half life measured upto 2 hrs by LC-MS analysis; assay type: ADME, cell-free
[19] = Metabolic stability in CD-1 mouse liver microsomes assessed as half life at 1 uM measured upto 60 mins in absence of NADPH by LC-MS/MS analysis; assay type: ADME, Microsome
[20] = Apparent permeability from basolateral to apical side in human Caco-2 cells at 2 uM with pH 7.4 incubated for 2 hrs by LC-MS analysis; assay type: ADME, cell-based; settings: for permeability: caco-2, pH 7.4, 2 h, 2 µM
[21] = target: Replicase polyprotein 1ab (Severe acute respiratory syndrome coronavirus 2, UniProt P0DTD1); experiment: Inhibition of SARS-CoV-2 3CL protease incubated for 30 mins by FRET assay

| Structure (SMILES) | EC50 [3] | CC50 at 24 h [5] | CC50 at 24 h [6] | EC50 (Human coronavirus 229E) | remaining at 2 h [7] | inhibition (Cathepsin B [8]) | inhibition (Cathepsin S [9]) | pKa [11] | CC50 at 24 h (in vitro [12]) | CC50 at 24 h (in vitro [13]) | EC50 (SARS-CoV-2) | half-life at 2 µM [14] | logD [17] | half-life [18] | further results |
| --- | --- | --- | --- | --- | --- | --- | --- | --- | --- | --- | --- | --- | --- | --- | --- |
| COc1cccc2[nH]c(C(=O)N[C@@H](CC(C)C)C(=O)N[C@@H](C[C@@H]3CCCNC3=O)C(=O)COC(=O)c3c(C(F)(F)F)cccc3C(F)(F)F)cc12 | 47 nM | > 100000 nM | 94600 nM | 29 nM | 100% | 91.3% | 96.8% | 1.9 | > 200000 nM | > 200000 nM | 160 nM | – | – | – | selectivity ratio [1]: > 1250; IC50 (Cathepsin S [2]): 116 nM; selectivity ratio [4]: > 1250; IC50 (Cathepsin B [10]): 464 nM |
| COc1cccc2[nH]c(C(=O)N[C@@H](CC(C)C)C(=O)N[C@@H](C[C@@H]3CCCNC3=O)C(=O)COC(=O)C(C)(C)C)cc12 | – | – | – | – | 100% | – | – | 5.03 | – | – | > 10000 nM | – | – | – | – |
| COc1cccc2[nH]c(C(=O)N[C@@H](CC(C)C)C(=O)N[C@@H](C[C@@H]3CCCNC3=O)C(=O)COC(=O)C(C)(C)C(F)(F)F)cc12 | 195 nM | > 100000 nM | 94600 nM | 112 nM | 25% | – | – | 3.2 | > 200000 nM | > 200000 nM | > 5000 nM | 11.6 min | 4.89 | 67 min | Stability [15]: Unstable; Stability ([16]; mouse, 1.5 h, 3 µM): Unstable; Stability ([19]; mouse, microsomes, 1 h, 1 µM): Unstable; permeability [20]: Impermeable |
| COc1cccc2[nH]c(C(=O)N[C@@H](CC(C)C)C(=O)N[C@@H](C[C@@H]3CCCNC3=O)C(=O)COC(=O)C(C)(C)C#N)cc12 | – | – | – | – | 0% | – | – | 2.4 | – | – | > 10000 nM | – | – | < 15 min | – |
| COc1cccc2[nH]c(C(=O)N[C@@H](CC(C)C)C(=O)N[C@@H](C[C@@H]3CCCNC3=O)C(=O)COC(=O)C3(C)OCCCO3)cc12 | – | – | – | – | – | – | – | 2.7 | – | – | > 10000 nM | – | – | – | IC50 [21]: 12.5 nM |
| COc1cccc2[nH]c(C(=O)N[C@@H](CC(C)C)C(=O)N[C@@H](C[C@@H]3CCNC3=O)C(=O)COC(=O)c3c(C(F)(F)F)cc(C)nc3C)cc12 | 33 nM | > 100000 nM | 44900 nM | 13 nM | – | – | – | – | > 200000 nM | > 201000 nM | – | > 289 min | 4.57 | – | half-life at 1 µM ([15]; CD-1, mouse, liver microsomes): 1.1 min; half-life at 3 µM [16]: 1.9 min; Papp B→A at 2 h, 2 µM ([20]; Caco-2, pH 7.4): 24.3 ×10⁻⁶ cm/s |
| COc1cccc2[nH]c(C(=O)N[C@@H](CC(C)C)C(=O)N[C@@H](C[C@@H]3CCCNC3=O)C(=O)COC(=O)c3ccccc3)cc12 | – | – | – | – | 67% | 16.2% | 41% | 4.2 | – | – | > 10000 nM | – | – | 209 min | – |
| O=C[C@H](C[C@@H]1CCNC1=O)NC(=O)[C@H](CC1CCCCC1)NC(=O)OCc1cccc(Cl)c1 | – | – | – | – | – | 72.5% | 99.3% | – | – | – | – | – | – | – | – |
| COc1cccc2[nH]c(C(=O)N[C@@H](CC(C)C)C(=O)N[C@@H](C[C@@H]3CCCNC3=O)C(=O)COC(=O)c3ccccn3)cc12 | – | – | – | – | – | – | – | 0.99 | – | – | > 10000 nM | – | – | – | IC50 [21]: 126 nM |
| COc1cccc2[nH]c(C(=O)N[C@@H](CC(C)C)C(=O)N[C@@H](C[C@@H]3CCCNC3=O)C(=O)COC(=O)c3c(Cl)cccc3Cl)cc12 | 35 nM | > 100000 nM | > 100000 nM | 21 nM | – | – | – | 1.26 | > 200000 nM | > 200000 nM | – | 170 min | > 5.07 | – | Stability [15]: Unstable; half-life at 3 µM [16]: 2.3 min; half-life at 1 µM ([19]; CD-1, mouse, liver microsomes): < 180 min; permeability [20]: Impermeable |
